The values below come from patent US9303045B2, “5-HT3 receptor antagonists” (Takeda Pharmaceutical Company Limited, priority 2013, dated 2016).

Some results are limits rather than exact numbers.

In the test the target is 5HT3a receptor expressed in HEK-293T cells (Homo sapiens (Human), UniProt P46098). Kind of test: Inhibition of Ca flux activity of 5HT3 in vitro assay. In kind it is cell-based. Particulars: calcium flux, 5HT 216 nM, approximate values. The method in brief:
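HEK-293T cells transiently transfected with human 5HT3a, loaded 1 hour at 37° C with calcium dye in HBSS/20 mM HEPES, preincubated with compound (10^−7 to 10^−10, half-log) 10 minutes at room temperature.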
(In general: Calcium flux is commonly read through the fluorescence of an indicator in the cells.)

Sequence of 5HT3a receptor expressed in HEK-293T cells (P46098 24-478): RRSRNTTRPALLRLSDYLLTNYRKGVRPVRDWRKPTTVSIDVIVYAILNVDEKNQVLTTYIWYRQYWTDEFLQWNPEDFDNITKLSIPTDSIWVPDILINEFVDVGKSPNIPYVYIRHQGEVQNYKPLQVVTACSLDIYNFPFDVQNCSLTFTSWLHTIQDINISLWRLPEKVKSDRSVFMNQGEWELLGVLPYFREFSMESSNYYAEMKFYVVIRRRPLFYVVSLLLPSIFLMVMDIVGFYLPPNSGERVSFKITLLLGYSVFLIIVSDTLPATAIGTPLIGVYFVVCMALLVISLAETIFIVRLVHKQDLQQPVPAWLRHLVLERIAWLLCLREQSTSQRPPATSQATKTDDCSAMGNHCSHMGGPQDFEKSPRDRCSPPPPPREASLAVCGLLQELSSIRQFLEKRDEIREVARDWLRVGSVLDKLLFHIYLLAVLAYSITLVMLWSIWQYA

As a reminder, the IC50 is the concentration that inhibits the measured activity by half. `CN1[C@@H]2COC[C@H]1CC(NC(=O)c1cn(-c3ncccn3)c3ccccc13)C2` (stereo partly drawn) [Example 107, N-((1R,5S,7S)-9-methyl-3-oxa-9-azabicyclo[3.3.1]nonan-7-yl)-1-(pyrimidin-2-yl)-1H-indole-3-carboxamide, 2,2,2-trifluoroacetate]: the IC50 turned out to be 1.1 nM.

Consider `CN1[C@@H]2COC[C@H]1CC(NC(=O)c1cn(CC(C)(F)F)c3ncccc13)C2` (stereo partly drawn) [Example 108, 1-(2,2-difluoropropyl)-N-((1R,5S,7S)-9-methyl-3-oxa-9-azabicyclo[3.3.1]nonan-7-yl)-1H-pyrrolo[2,3-b]pyridine-3-carboxamide, 2,2,2-trifluoroacetate], for which the 50% inhibitory concentration (IC50) was determined as 1.05 nM.

For `CN1[C@@H]2COC[C@H]1CC(NC(=O)c1cn(CC(F)F)c3ncc(F)cc13)C2` (stereo partly drawn) [Example 109, 1(2,2-difluoroethyl)-5-fluoro-N-((1R,5S,7S)-9-methyl-d3-3-oxa-9-azabicyclo[3.3.1]nonan-7-yl)-1H-pyrrolo[2,3-b]pyridine-3-carboxamide], the IC50 was determined as 1.11 nM.

For the molecule `CC(C)S(=O)(=O)n1cc(C(=O)NC2C[C@H]3COC[C@@H](C2)N3C)c2ccccc21` (stereo partly drawn) [Example 111, N-((1R,5S,7S)-9-methyl-d3-3-oxa-9-azabicyclo[3.3.1]nonan-7-yl)-1-(isopropylsulfonyl)-1H-indole-3-carboxamide, 2,2,2-trifluoroacetate], the IC50 came to 0.77 nM.

As for `CN1[C@@H]2COC[C@H]1CC(NC(=O)c1cn(CC(F)(F)F)c3ccc(F)cc13)C2` (stereo partly drawn) [Example 112, 1-(2,2,2-trifluoroethyl)-5-fluoro-N-((1R,5S,7S)-9-methyl-d3-3-oxa-9-azabicyclo[3.3.1]nonan-7-yl)-1H-indole-3-carboxamide, 2,2,2-trifluoroacetate], the IC50 amounted to 0.53 nM.

Consider `CN1[C@@H]2COC[C@H]1CC(NC(=O)c1cn(CC(F)F)c3ccc(F)cc13)C2` (stereo partly drawn) [Example 113, 1-(2,2-difluoroethyl)-5-fluoro-N-((1R,5S,7S)-9-methyl-d3-3-oxa-9-azabicyclo[3.3.1]nonan-7-yl)-1H-indole-3-carboxamide, 2,2,2-trifluoroacetate], for which the IC50 was 0.23 nM.

As for `O=C(N[C@@H]1CN2CCC1CC2)c1cn(CC(F)F)c2ncccc12` [Example 116, (S)-1-(2,2-difluoroethyl)-N-(quinuclidin-3-yl)-1H-pyrrolo[2,3-b]pyridine-3-carboxamide, 2,2,2-trifluoroacetate], the IC50 is over 1000 nM.

Turning to `CN1[C@@H]2COC[C@H]1CC(NC(=O)c1cn(-c3cccnn3)c3ccccc13)C2` (stereo partly drawn) [Example 117, N-((1R,5S,7S)-9-methyl-3-oxa-9-azabicyclo[3.3.1]nonan-7-yl)-1-(pyridazin-3-yl)-1H-indole-3-carboxamide, 2,2,2-trifluoroacetate], the IC50 was determined as 0.39 nM.

With `CN1C2COCC1CC(NC(=O)c1cn(-c3nccs3)c3ccccc13)C2` [Example 118, N-((1R,5S,7S)-9-methyl-3-oxa-9-azabicyclo[3.3.1]nonan-7-yl)-1-(thiazol-2-yl)-1H-indole-3-carboxamide, 2,2,2-trifluoroacetate], the IC50 is 0.86 nM.

As to `CN1C2COCC1CC(NC(=O)c1cn(-c3cncnc3)c3ccccc13)C2` [Example 120, N-((1R,5S,7S)-9-methyl-3-oxa-9-azabicyclo[3.3.1]nonan-7-yl)-1-(pyrimidin-5-yl)-1H-indole-3-carboxamide, 2,2,2-trifluoroacetate], the concentration for half-maximal inhibition (IC50) was found to be 0.39 nM.

Turning to `CN1[C@@H]2COC[C@H]1CC(NC(=O)c1cn(-c3ncccn3)c3ccccc13)C2` (stereo partly drawn) [Example 122, N-((1R,5S,7S)-9-methyl-d3-3-oxa-9-azabicyclo[3.3.1]nonan-7-yl)-1-(pyrimidin-2-yl)-1H-indole-3-carboxamide, 2,2,2-trifluoroacetate], the IC50 was 1.01 nM.

Take `CN1[C@@H]2COC[C@H]1CC(NC(=O)c1cn(-c3cccnn3)c3ccccc13)C2` (stereo partly drawn) [Example 123, N-((1R,5S,7S)-9-methyl-d3-3-oxa-9-azabicyclo[3.3.1]nonan-7-yl)-1-(pyridazin-3-yl)-1H-indole-3-carboxamide, 2,2,2-trifluoroacetate]: the IC50 amounted to 0.28 nM.

Take `CN1[C@@H]2COC[C@H]1CC(NC(=O)c1nn(CC(F)(F)F)c3ccccc13)C2` (stereo partly drawn) [Example 126, N-((1R,5S,7S)-9-methyl-d3-3-oxa-9-azabicyclo[3.3.1]nonan-7-yl)-1-(2,2,2-trifluoroethyl)-1H-indazole-3-carboxamide, 2,2,2-trifluoroacetate]: the IC50 was determined as 0.86 nM.

Turning to `CN1[C@@H]2COC[C@H]1CC(NC(=O)c1cn(CCF)c3ccccc13)C2` (stereo partly drawn) [Example 127, 1-(2-fluoroethyl)-N-((1R,5S,7S)-9-methyl-d3-3-oxa-9-azabicyclo[3.3.1]nonan-7-yl)-1H-indole-3-carboxamide, 2,2,2-trifluoroacetate], the IC50 was 0.22 nM.

Take `O=C(OC1C[C@H]2COC[C@@H](C1)N2)c1cn(-c2nccs2)c2ccccc12` (stereo partly drawn) [Example 128, (1R,5S,7S)-3-oxa-9-azabicyclo[3.3.1]nonan-7-yl 1-(thiazol-2-yl)-1H-indole-3-carboxamide, 2,2,2-trifluoroacetate]: the IC50 turned out to be 2.16 nM.

Turning to `CN1[C@@H]2COC[C@H]1C[C@@H](NC(=O)c1cn(-c3cnccn3)c3ccccc13)C2` [Example 129, N-((1R,5S,7S)-9-methyl-3-oxa-9-azabicyclo[3.3.1]nonan-7-yl)-1-(pyrazin-2-yl)-1H-indole-3-carboxamide, di-2,2,2-trifluoroacetate], the IC50 came to 0.64 nM.

Take `CN1[C@@H]2COC[C@H]1CC(NC(=O)c1cn(-c3cnccn3)c3ccccc13)C2` (stereo partly drawn) [Example 130, N-((1R,5S,7S)-9-methyl-d3-3-oxa-9-azabicyclo[3.3.1]nonan-7-yl)-1-(pyrazin-2-yl)-1H-indole-3-carboxamide]: the IC50 worked out at 0.55 nM.

Turning to `CC(C)S(=O)(=O)n1cc(C(=O)O[C@H]2C[C@H]3COC[C@@H](C2)N3)c2ccccc21` [Example 131, (1R,5S,7S)-3-oxa-9-azabicyclo[3.3.1]nonan-7-yl 1-(isopropylsulfonyl)-1H-indole-3-carboxylate, 2,2,2-trifluoroacetate], the IC50 worked out at 1.93 nM.

As for `CS(=O)(=O)n1cc(C(=O)O[C@H]2C[C@H]3COC[C@@H](C2)N3)c2cc(F)ccc21` [Example 132, (1R,5S,7S)-3-oxa-9-azabicyclo[3.3.1]nonan-7-yl 5-fluoro-1-(methylsulfonyl)-1H-indole-3-carboxylate, 2,2,2-trifluoroacetate], the IC50 was determined as 2.3 nM.

Turning to `CCS(=O)(=O)n1cc(C(=O)OC2C[C@H]3COC[C@@H](C2)N3)c2ccccc21` (stereo partly drawn) [Example 133, (1R,5S,7S)-3-oxa-9-azabicyclo[3.3.1]nonan-7-yl 1-(ethylsulfonyl)-1H-indole-3-carboxylate, 2,2,2-trifluoroacetate], the IC50 is 1.5 nM.

For the molecule `O=C(OC1C[C@H]2COC[C@@H](C1)N2)c1cn(S(=O)(=O)C2CC2)c2ccccc12` (stereo partly drawn) [Example 134, (1R,5S,7S)-3-oxa-9-azabicyclo[3.3.1]nonan-7-yl 1-(cyclopropylsulfonyl)-1H-indole-3-carboxylate, 2,2,2-trifluoroacetate], the IC50 was 1.99 nM.

In the case of `CC(C)CS(=O)(=O)n1cc(C(=O)OC2C[C@H]3COC[C@@H](C2)N3)c2ccccc21` (stereo partly drawn) [Example 135, (1R,5S,7S)-3-oxa-9-azabicyclo[3.3.1]nonan-7-yl 1-(isobutylsulfonyl)-1H-indole-3-carboxylate, 2,2,2-trifluoroacetate], the IC50 turned out to be 11.7 nM.
